Measurements as given in patent US10729700B2, “Methods and compositions of bile acids and salts for reduction of fat” (priority 2014, dated 2020).

How the values were obtained:
[1] = Stability of bile salts in aqueous solution; conditions: for Solution stability of bile salt: 1% in 10 mM phosphate buffer
Method: 0.01 g of bile salts (UDCA, DCA, CDCA and CA) were dissolved in 1 ml of phosphate buffer and placed at room temperature for 10 days.

3T3-L1 adipocytes = experiment: Cell lysis effect by detergent in vitro (MTT assay); format: cell-based
Method: To induce adipocyte differentiation, 3T3-L1 pre-adipocytes were seeded in 96-well plate (5×10^3 cells/well) and grown until 2 days post-confluence (day 0) and then treated for 2 days with growth media plus MDI (0.5 μM methylisobutylxanthine, 1 μM dexamethasone and 10 ug/ml insulin; all from Sigma-Aldrich Chemical, St. Louis, Mo., USA), followed by 2 days of treatment with the media containing 10 ug/ml insulin alone. Medium was replaced every 2 days for the following 8 days. Differentiated adipocytes in 96 well plate were washed twice with PBS and incubated in various concentrations of bile salts in serum free DMEM. After 1 hour incubation at 37° C., media were changed and 20 μl of MTT solution (5 mg MTT/ml in PBS) was added into each well and incubated for 1 hour at 37° C. The resultant formazan product was dissolved in 100 μl of DMSO/well and cell viability was determined by measuring the optical density at 570 nm (OD570) using a microplate reader.

rat paws = conditions: in vivo
Method: Male SD rats (6 weeks old) were purchased from Koatech Co. (Seoul, Korea) and used after 1 week of acclimation. Rats (200˜230 g) were randomly selected and the volume of intact rats paw was measured in all groups using a digital caliper (Bluebird, Seoul, Korea). […] To induce the edema, rats received 100 μl of various bile salts and PBS into the plantar region of the hind foot of rats. Measurements of the paw volume were performed by a caliper immediately before the bile salts injection and 4 hours after injection.

[2] = system: inguinal fat pads of obese mice; design: Inflammation of injection site: key to the marks not given beside the values; conditions: mouse, in vivo
[3] = system: inguinal fat pads of obese mice; experiment: Quantitation of in vivo necrotic area (TTC staining) and histology of injected fat pads; conditions: necrotic area, FIGS. 12B and 12C
Method: Various concentrations of bile salts (DCA, CDCA, and CA) solutions in 100 μl volume of PBS were injected to the inguinal fat pads of obese mice. Mice were sacrificed at 1 day after the injection. Mouse inguinal fat pads were stained with 2% TTC (Sigma-Aldrich Chemical, St. Louis, Mo., USA) in PBS for 2 hour to identify the non-necrotic and necrotic areas and subsequently immersed in 10% formalin to enhance the contrast. […] The appearance and area of necrotic fat regions were captured and imaged by scanner. The necrotic area of fat pad treated DCA, CDCA, CA, and PBS was calculated by Image J.

[4] = system: Inguinal fat (subcutaneous fat) pads; experiment: Ex vivo fat lysis assay (MTT); format: cell-based, diet induced obese mice
Method: Inguinal fat (subcutaneous fat) pads were excised from diet induced obese mice and chopped to about the same size. 100 mg tissue samples were transferred to 48 well plates and incubated with 350 μl of various concentrations and pH of DCA, CDCA, CA, and phosphate buffer for 10 minutes. 70 μl of MTT solution (5 mg/ml in PBS) was added into each well and incubated for overnight at 37° C. The solution was removed and precipitated formazan product was dissolved in 300 μl of DMSO. Tissue viability was monitored by measuring the optical density at 570 nm (OD570) using a microplate reader.

C[C@H](CCC(=O)O)[C@H]1CC[C@H]2[C@@H]3C[C@H](O)[C@@H]4C[C@H](O)CC[C@]4(C)[C@H]3CC[C@]12C [HDCA, hyodeoxycholate]
Solution stability of bile salt ([1]; pH 6.5, 25° C.): Gelation
Solution stability of bile salt ([1]; pH 6.7, 25° C.): Gelation
Solution stability of bile salt ([1]; pH 7.0, 25° C.): Gelation
Solution stability of bile salt ([1]; pH 7.2, 25° C.): Gelation
Solution stability of bile salt ([1]; pH 7.4, 25° C.): Stable
Solution stability of bile salt ([1]; pH 7.6, 25° C.): Stable
Solution stability of bile salt ([1]; pH 7.8, 25° C.): Stable
Solution stability of bile salt ([1]; pH 8.0, 25° C.): Stable
Solution stability of bile salt ([1]; pH 8.3, 25° C.): Stable
pH stability ([1]; summary, Table 4): <7.4
EC50 (concentration that kills 50% of the cells) (3T3-L1 adipocytes; differentiated 3T3-L1 adipocytes): 0.42%
ED50 (% w/v); EC50 values of bile salts required to lysis of adipose cells in vitro (3T3-L1 adipocytes; differentiated 3T3-L1 adipocytes, 1 hour, MTT): 0.249 % w/v
cell killing effect compared to CA (3T3-L1 adipocytes; similar concentration (0˜1%)): slightly higher cell killing effect compared to CA
Adverse event: edema (rat paws): ++
severity of edema (paw thickness) (rat paws): slightly lower symptom
Inflammation of injection site [2]: +++
histological changes in fat pads (H & E) [2]: Infiltration of polymorphonuclear (PMN) cells into the fat pad tissue was observed
inflammation after injection to subcutaneous fat [2]: severe inflammation
tissue lysis effect with higher concentration [3]: did not increased proportionally
EC50 concentrations, ex vivo condition [4]: 0.0250%
ED50 (% w/v); EC50 values of bile salts required to lysis of fat tissues ex vivo ([4]; fat tissues of high fat diet mice, 10 minutes, MTT): 0.0250 % w/v
effect of increased pH of solution on fat lysis activities ([4]; pH 6.0 ˜pH 9.0, bile salt at EC50 in pH 7.4): greatly diminishes the fat lysis activities
EC50 fold higher than DCA or CDCA, ex vivo ([4]; relative to DCA or CDCA): 1.4 fold
